According to US20230123334A1, “AMINO LIPID COMPOUND, PREPARATION METHOD THEREFOR, AND APPLICATION THEREOF” (SHENZHEN SHENXIN BIOTECHNOLOGY CO., LTD., priority 2020, published 2023):

Each molecule was assayed on HEK293 cells (assay: Preliminary screening as mRNA vectors, EGFP mRNA transfection of HEK293 cells). Conditions: EGFP mRNA 50 ng per well, 96-well plates; percentage of GFP fluorescent cells relative to total number of cells (Hoechst).
Format: cell-based
How it was run: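 HEK293 cells in DMEM plus 10% FBS transfected in 96-well format with 50 ng EGFP mRNA per well; Lipofectamine2000 served as positive control. Read-out is the percentage of GFP-fluorescent cells among total cells, counted by Hoechst nuclear stain.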

Row | SMILES | Absolute mRNA transfection efficiency in HEK293 cells [%]
1 | CCCCCCCCCCCCN(CCCCCCCCCCCC)c1nc(NCC2CCN(C)CC2)nc(SCCCCCCCCCCC)n1 [D10S11^2N12] | 0.0
2 | CCCCCCCCSc1nc(NCCCCCCC)nc(NCCCN2CCOCC2)n1 [Compound D8S8N7] | 0.1
3 | CCCCCCCCCCSc1nc(NCCCCCCCC)nc(NCCN2CCCC2)n1 [Compound D3S10N8] | 0.4
4 | CCCCCCCCCCCCCCSc1nc(NCCCCCCCCC)nc(NCCN2CCN(C)CC2)n1 [Compound D5S14N9] | 44.9
5 | CCCCCCCCCSc1nc(NCCCCCCCC)nc(NCCN(CC)CC)n1 [Compound D7S9N8] | 11.1
6 | CCCCCCCCCCCCNc1nc(NCCN(CC)CC)nc(SCCCCCCCCCC)n1 [Compound D7S10N12] | 10.6
7 | CCCCCCCCCCCCCCCCSc1nc(NCCCCCC)nc(NCCN2CCCCC2)n1 [Compound D4S16N6] | 2.6
8 | CCCCCCCCCCCCCCCCCCNc1nc(NCCN2CCCC2)nc(SCCCCCCCCC)n1 [Compound D3S9N18] | 26.7
9 | CCCCCCCCCCCSc1nc(NCCCCCCCCC)nc(NCCN2CCCC2)n1 [Compound D3S11N9] | 24.5
10 | CCCCCCCCCCSc1nc(NCCCCCC)nc(NCCCN(C)C)n1 [Compound D6S10N6] | 1.5
11 | CCCCCCCCCSc1nc(NCCN2CCCC2)nc(SCCCCCC)n1 [Compound D3S6S9] | 2.6
12 | CCCCCCCCCSc1nc(NCCN(CC)CC)nc(SCCCCCCC)n1 [Compound D7S7S9] | 13.5
13 | CCCCCCCCCCCCCCCCNc1nc(NCCN2CCOCC2)nc(SCCCCCCCCC)n1 [Compound D2S9N16] | 1.4
14 | CCCCCCCCCSc1nc(NCCN2CCCCC2)nc(SCCCCCC)n1 [Compound D4S6S9] | 0.7
15 | CCCCCCCCCCCSc1nc(NCCN2CCCC2)nc(SCCCCCCCC)n1 [Compound D3S8S11] | 4.9
16 | CCCCCCCCCCCCCCSc1nc(NCCCCCCCC)nc(NCC2CCN(C)CC2)n1 [Compound D10S14N8] | 43.8
17 | CCCCCCCCCCCCCCCCCCSc1nc(NCCCCCCCCCCCC)nc(NCCCN(C)C)n1 [Compound D6S18N12] | 2.6
18 | CCCCCCCCCCCCNc1nc(NCCN2CCN(C)CC2)nc(SCCCCCCCCCCCC)n1 [Compound D5S12N12] | 3.5
19 | CCCCCCCCSc1nc(NCCN2CCCCC2)nc(SCCCCCCC)n1 [Compound D4S7S8] | 5.9
20 | CCCCCCCCCCCCCCCCCCSc1nc(NCCCCCCCCCCCCCCCC)nc(NCCCN2CCN(C)CC2)n1 [Compound D9S18N16] | 0.1
21 | CCCCCCCCCCCCCCCNc1nc(NCCN2CCCCC2)nc(SCCCCCCCCC)n1 [Compound D4S9N15] | 4.9
22 | CCCCCCCCCCCCCCCCCCNc1nc(NCCN2CCOCC2)nc(SCCCCCCCCCC)n1 [Compound D2S10N18] | 0.0
23 | CCCCCCCCNc1nc(NCC2CCN(C)CC2)nc(SCCCCCC)n1 [Compound D10S6N8] | 1.4
24 | CCCCCCCCCCCCCCCCCCNc1nc(NCCN2CCCC2)nc(SCCCCCCCCCCCC)n1 [Compound D3S12N18] | 3.5
25 | CCCCCCCCCCCSc1nc(NCCCCCCCCC)nc(NCCN2CCOCC2)n1 [Compound D2S11N9] | 2.5

Row | SMILES | Absolute mRNA transfection efficiency in HEK293 cells [%]
26 | CCCCCCCCCCCCCCCCNc1nc(NCCN2CCN(C)CC2)nc(SCCCCCCCCCCCCCC)n1 [Compound D5S14N16] | 0.6
27 | CCCCCCCCCCCCCCCCNc1nc(NCCCN2CCN(C)CC2)nc(SCCCCCCCCCCCCCCC)n1 [Compound D9S15N16] | 2.7
28 | CCCCCCCCCCCCSc1nc(NCCN2CCOCC2)nc(SCCCCCC)n1 [Compound D2S6S12] | 1.5
29 | CCCCCCCCCCCCCCCCCCSc1nc(NCCCCCCC)nc(NCCCN2CCN(C)CC2)n1 [Compound D9S18N7] | 86.6
30 | CCCCCCCCCCSc1nc(NCCCCCC)nc(NCCN2CCCC2)n1 [Compound D3S10N6] | 0.4
31 | CCCCCCCCCCCCCCCSc1nc(NCCCCCCC)nc(NCCN2CCOCC2)n1 [Compound D2S15N7] | 4.5
32 | CCCCCCCCCCCCCCCNc1nc(NCCN2CCCC2)nc(SCCCCCCCC)n1 [Compound D3S8N15] | 21.8
33 | CCCCCCCSc1nc(NCCN2CCN(C)CC2)nc(SCCCCCCC)n1 [Compound D5S7S7] | 10.5
34 | CCCCCCCCCCCCCCCCCCNc1nc(NCCN2CCCCC2)nc(SCCCCCCCCCCCCCCCCCC)n1 [Compound D4S18N18] | 0.2
35 | CCCCCCCCCCCCCCCCSc1nc(NCCCCCCCCCCCC)nc(NCCN2CCCCC2)n1 [Compound D4S16N12] | 0.1
36 | CCCCCCCCCCCCSc1nc(NCCN(CC)CC)nc(SCCCCCC)n1 [Compound D7S6S12] | 8.1
37 | CCCCCCCCCCCCN(CCCCCCCCCCCC)c1nc(NCCN2CCOCC2)nc(SCCCCCCCC)n1 [D2S8^2N12] | 0.1
38 | CCCCCCCCCCCCCCCCSc1nc(NCCCCCCCCCCC)nc(NCCCN2CCOCC2)n1 [Compound D8S16N11] | 3.6
39 | CCCCCCCCCCCCCCCCCCNc1nc(NCCN(C)C)nc(SCCCCCCCCCCCCCCC)n1 [Compound D1S15N18] | 3.8
40 | CCCCCCNc1nc(NCC2CCN(C)CC2)nc(SCCCCCC)n1 [Compound D10S6N6] | 0.3
41 | CCCCCCCSc1nc(NCCCN2CCOCC2)nc(SCCCCCC)n1 [Compound D8S6S7] | 1.5
42 | CCCCCCCCCCCCCCCCCCNc1nc(NCCN2CCCC2)nc(SCCCCCCCCCC)n1 [Compound D3S10N18] | 59.6
43 | CCCCCCCCCCSc1nc(NCCCCCCC)nc(NCCN(CC)CC)n1 [Compound D7S10N7] | 1.2
44 | CCCCCCCCCCCCN(CCCCCCCCCCCC)c1nc(NCC2CCN(C)CC2)nc(SCCCCCCCCCC)n1 [D10S10^2N12] | 0.2
45 | CCCCCCCCCSc1nc(NCCCCCCC)nc(NCCN(CC)CC)n1 [Compound D7S9N7] | 1.6
46 | CCCCCCCCCCCCSc1nc(NCCCCCCC)nc(NCCCN(C)C)n1 [Compound D6S12N7] | 13.0
47 | CCCCCCCCCSc1nc(NCCCCCCCC)nc(NCCN2CCN(C)CC2)n1 [Compound D5S9N8] | 6.0
48 | CCCCCCCCCCCCCCCSc1nc(NCCCN2CCOCC2)nc(N(CCCCCCCCCCCC)CCCCCCCCCCCC)n1 [D8S15^2N12] | 2.9
49 | CCCCCCCCCCSc1nc(NCCCCCCCC)nc(NCCN(C)C)n1 [Compound D1S10N8] | 0.5
